Holding throughout (assay type): physicochemical
Data set [1] can be described thus: Chemical stability (air, chromatography).
The nature of data set [2]: Qualitative solubility in representative organic solvents. The settings on record: for solubility in CH2Cl2: CH2Cl2, qualitative; for solubility in dimethylformamide / solubility in ethanol / solubility in hexanes / solubility in toluene: qualitative.
Data set [3] in a line: Concentration of salt in solution, gel and film. Particulars: Tween 80 21.6 mg. The source says:
The identification of water soluble phthalocyanine salts also makes possible the preparation of aqueous gel formulations of phthalocyanine salts. […] These phthalocyanine salt-containing gels provide gel formulations of phthalocyanine salts suitable for topical use. Thin films of the gels can also be dried to form coherent, stable, water-swellable films. These films provide formulations for phthalocyanine salt-containing patches that can be used for topical administration.

The nature of data set [4]: Salt concentration in polar and nonpolar solvents (Table 2).

We go through 7 compounds from patent US8440641B2, “Phthalocyanine salt formulations” (Case Western Reserve University, priority 2009, dated 2013).

Bounds are passed on as bounds.

For the compound “[HOSiPcOSi(CH3)2(CH2)3NH(CH3)2]^+[(HOC(O)(CH2)10Si(CH3)2)(Si(CH3)2O)˜120(Si(CH3)2(CH2)10C(O)O]^− [Compound 16]”, in data set [1] (Biobeads S-X3, CH2Cl2), the stability on chromatography result was “decomposed to Pc 4 and the carboxysiloxane”. Further, in data set [2], the “solubility in CH2Cl2” value is “soluble”, the solubility in dimethylformamide result is recorded as “soluble”, the solubility in ethanol result is “soluble” and the solubility in hexanes entry was “insoluble”. Besides, in data set [2], the solubility in toluene result is given as “moderately soluble”.
In the case of “[ClSiPcOSi(CH3)2(CH2)3NH(CH3)2]^+Cl^− [Compound 28]”, the “time of hydrolysis by air to Pc 4” value in data set [1] (air) is reported as at most 30 min. In addition, in data set [2], the “solubility in CH2Cl2” value is given as “soluble”, the solubility in dimethylformamide result was “soluble”, the solubility in ethanol entry is “soluble” and the solubility in hexanes entry is given as “insoluble”. In data set [2], the solubility in toluene result is given as “moderately soluble”.
For `CCC(=O)O[Si-2]123(O[Si](C)(C)CCCN(C)C)n4c5c6ccccc6c4N=C4c6ccccc6C(=[N+]41)N=c1c4ccccc4c(n12)=NC1=[N+]3C(=N5)c2ccccc21` [Compound 3, CH3CH2C(O)OSiPcOSi(CH3)2(CH2)3N(CH3)2], in data set [1] (air), the stability in air entry is “stable”. Besides, in data set [2], the “solubility in CH2Cl2” value is recorded as “soluble”, the solubility in dimethylformamide result is “soluble”, the solubility in ethanol result is “soluble” and the solubility in hexanes result is recorded as “insoluble”. In data set [2], the solubility in toluene result is reported as “moderately soluble”.
Take “[HOSiPcOSi(CH3)2(CH2)3NH(CH2)21]^+[OC(O)CHOHCH2C(O)OH]^− [Compound 6]”: the product conc in data set [3] (film: Pc 4 0.33 mg, HEC 118 mg) is listed as about 0.2%. Further, in data set [3] (gel: Pc 4 0.33 mg, H2O 3.0 mL, HEC 118 mg), the product conc is listed as about 0.01%. Moreover, the product conc in data set [3] (solution: Pc 4 0.33 mg, H2O 3.0 mL) turned out to be 0.11 mg/mL. In data set [2], the “solubility in CH2Cl2” value is listed as “soluble”, the solubility in dimethylformamide entry is given as “soluble”, the solubility in ethanol entry is “soluble” and the solubility in hexanes result is recorded as “insoluble”. For the same compound, the solubility in toluene entry in data set [2] is given as “moderately soluble”. Moreover, the “salt concentration, […] aqueous Tween 80” value in data set [4] ([…] aqueous Tween 80) is recorded as 0.165 mM. Moreover, in data set [4] (aqueous solution, in words), the “solubility in aqueous solution” value is “show solubility”. Moreover, the “salt concentration, hexanes” value in data set [4] (hexanes) turned out to be 0.0006 mM. In addition, in data set [4] (hexanes, mineral oil (Nujol), in words), the “solubility in hexanes and mineral oil” value is on record as “little”. The “salt concentration, mineral oil” value in data set [4] (mineral oil) is 0.0002 mM.
As for `CN(C)CCC[Si](C)(C)O[Si-2]123(F)n4c5c6ccccc6c4N=C4c6ccccc6C(=[N+]41)N=c1c4ccccc4c(n12)=NC1=[N+]3C(=N5)c2ccccc21` [Compound 1, FSiPcOSi(CH3)2(CH2)3N(CH3)2], the stability in air result in data set [1] (air) is given as “stable”. In addition, in data set [2], the “solubility in CH2Cl2” value is “soluble”, the solubility in dimethylformamide entry is “soluble”, the solubility in ethanol result is “soluble” and the solubility in hexanes result was “insoluble”. Further, the solubility in toluene result in data set [2] is “moderately soluble”.
Take `CC(=O)O[Si-2]123(O[Si](C)(C)CCCN(C)C)n4c5c6ccccc6c4N=C4c6ccccc6C(=[N+]41)N=c1c4ccccc4c(n12)=NC1=[N+]3C(=N5)c2ccccc21` [Compound 2, CH3C(O)OSiPcOSi(CH3)2(CH2)3N(CH3)2]: the stability in air entry in data set [1] (air) is listed as “stable”. Besides, in data set [2], the “solubility in CH2Cl2” value is reported as “soluble”, the solubility in dimethylformamide result was “soluble”, the solubility in ethanol result is reported as “soluble” and the solubility in hexanes result is recorded as “insoluble”. Besides, the solubility in toluene result in data set [2] is given as “moderately soluble”.
In the case of `CO[Si]1(O[Si](C)(C)CCCN(C)C)n2c3c4ccccc4c2N=C2N=C(N=c4c5ccccc5c(n41)=NC1=NC(=N3)c3ccccc31)c1ccccc12` (stereo not shown) [Compound 4, CH3OSiPcOSi(CH3)2(CH2)3N(CH3)2], in data set [1] (air), the stability in air entry is recorded as “stable”. For the same compound, in data set [2], the “solubility in CH2Cl2” value is reported as “soluble”, the solubility in dimethylformamide result is reported as “soluble”, the solubility in ethanol result is listed as “soluble” and the solubility in hexanes result was “insoluble”. Moreover, the solubility in toluene entry in data set [2] is “moderately soluble”.
